From ChEMBL document CHEMBL1201862, “PubChem BioAssay data set” (2004)
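Where inhibition never reached the appropriate level, the endpoint shown equals the highest concentration tested. Otherwise, values were interpolated linearly from a five-concentration, 48-hour dose response in 96-well plates. GI50 marks 50% less growth.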 Calls of active or inactive are those of the source. Cut-off read from the data, not from the text of the source: active = GI50 up to about 1.1 µM and inactive = higher.

Tests used:
Assay in all cases: growth of human tumour cells (NCI), 48 h
MDA-MB-231 = system: MDA-MB-231
SF-539 = system: SF-539
SNB-75 = system: SNB-75
UACC-257 = system: UACC-257
CAKI-1 = system: CAKI-1
HL-60 = system: HL-60
DU-145 = system: DU-145
SW-620 = system: SW-620
SK-MEL-28 = system: SK-MEL-28
K562 = system: K562
M14 = system: M14
OVCAR-5 = system: OVCAR-5
SK-MEL-2 = system: SK-MEL-2
KM12 = system: KM12
SK-OV-3 = system: SK-OV-3
HCT-15 = system: HCT-15
HOP-92 = system: HOP-92
A549 = system: A549
UO-31 = system: UO-31
RXF 393 = system: RXF 393

| SMILES | GI50 (MDA-MB-231) | GI50 (SF-539) | GI50 (SNB-75) | GI50 (UACC-257) | GI50 (CAKI-1) | GI50 (HL-60) | GI50 (DU-145) | GI50 (SW-620) | GI50 (SK-MEL-28) | GI50 (K562) | GI50 (M14) | GI50 (OVCAR-5) | GI50 (SK-MEL-2) | GI50 (KM12) | GI50 (SK-OV-3) | GI50 (HCT-15) | GI50 (HOP-92) | GI50 (A549) | GI50 (UO-31) | GI50 (RXF 393) |
| --- | --- | --- | --- | --- | --- | --- | --- | --- | --- | --- | --- | --- | --- | --- | --- | --- | --- | --- | --- | --- |
| CN(C)c1nc(N)nc(CCl)n1 | 27.9 µM (inactive) | 26.1 µM (inactive) | 0.912 µM (active) | 87.7 µM (inactive) | 5.14 µM (inactive) | 19.1 µM (inactive) | 99.5 µM (inactive) | 28.3 µM (inactive) | 50.4 µM (inactive) | 29 µM (inactive) | 28.1 µM (inactive) | 65.9 µM (inactive) | > 100 µM (inactive) | 28.6 µM (inactive) | 56.2 µM (inactive) | 29.4 µM | 20.7 µM (inactive) | 78.9 µM (inactive) | 12.4 µM (inactive) | 26.5 µM (inactive) |
| O=C(O)c1ccc(CI)cc1 | 21.8 µM (inactive) | 18 µM (inactive) | 33.2 µM (inactive) | 19.3 µM (inactive) | 13.7 µM (inactive) | 20.8 µM (inactive) | 18.4 µM (inactive) | 14.6 µM (inactive) | 14.3 µM (inactive) | 23.7 µM (inactive) | 17.4 µM (inactive) | 18.7 µM (inactive) | 17.9 µM (inactive) | – | 25.4 µM (inactive) | 16 µM | 15.8 µM (inactive) | 17.6 µM (inactive) | 18 µM (inactive) | 17.7 µM (inactive) |
| CN1C(=O)N/C(=C\c2ccc(S(=O)(=O)NN)cc2)C1=O | > 100 µM (inactive) | – | > 100 µM (inactive) | > 100 µM (inactive) | > 100 µM (inactive) | > 100 µM (inactive) | > 100 µM (inactive) | > 100 µM (inactive) | > 100 µM (inactive) | > 100 µM (inactive) | > 100 µM (inactive) | > 100 µM (inactive) | > 100 µM (inactive) | > 100 µM (inactive) | > 100 µM (inactive) | > 100 µM | > 100 µM (inactive) | > 100 µM (inactive) | > 100 µM (inactive) | > 100 µM (inactive) |
| COCOc1cc(OC)ccc1C/C=N/O | > 100 µM (inactive) | > 100 µM (inactive) | – | > 100 µM (inactive) | > 100 µM (inactive) | > 100 µM (inactive) | > 100 µM (inactive) | > 100 µM (inactive) | > 100 µM (inactive) | > 100 µM (inactive) | > 100 µM (inactive) | > 100 µM (inactive) | > 100 µM (inactive) | > 100 µM (inactive) | > 100 µM (inactive) | > 100 µM | > 100 µM (inactive) | > 100 µM (inactive) | > 100 µM (inactive) | > 100 µM (inactive) |
| Clc1ccccc1/C=c1\nc(-c2ccccc2)n2c1nc1ccccc12 | 22.8 µM (inactive) | 20 µM (inactive) | – | > 100 µM (inactive) | 68.7 µM (inactive) | > 100 µM (inactive) | > 100 µM (inactive) | > 100 µM (inactive) | > 100 µM (inactive) | > 100 µM (inactive) | > 100 µM (inactive) | > 100 µM (inactive) | 45.3 µM (inactive) | > 100 µM (inactive) | 25.3 µM (inactive) | > 100 µM | 40.7 µM (inactive) | > 100 µM (inactive) | > 100 µM (inactive) | 18.2 µM (inactive) |
| CCOC(=O)c1nc2ccc(C(F)(F)F)cc2nc1Nc1ccc(OC)cc1 | 17.7 µM (inactive) | 33 µM (inactive) | 93.5 µM (inactive) | > 100 µM (inactive) | – | > 100 µM (inactive) | > 100 µM (inactive) | > 100 µM (inactive) | > 100 µM (inactive) | 68.2 µM (inactive) | 84.1 µM (inactive) | > 100 µM (inactive) | 71.9 µM (inactive) | > 100 µM (inactive) | – | > 100 µM | 12 µM (inactive) | 50.1 µM (inactive) | > 100 µM (inactive) | 22.1 µM (inactive) |
| CCc1c(O)nc(Nc2nc3ccccc3[nH]2)[nH]c1=O | > 100 µM (inactive) | > 100 µM (inactive) | > 100 µM (inactive) | > 100 µM (inactive) | – | > 100 µM (inactive) | > 100 µM (inactive) | > 100 µM (inactive) | > 100 µM (inactive) | > 100 µM (inactive) | > 100 µM (inactive) | > 100 µM (inactive) | > 100 µM (inactive) | – | > 100 µM (inactive) | > 100 µM | 27.7 µM (inactive) | > 100 µM (inactive) | > 100 µM (inactive) | > 100 µM (inactive) |
| Cc1cc(O)c2c3c(ccc2c1)C(=O)c1c(O)cccc1C3=O [TETRANGULOL] | 17.5 µM (inactive) | 7.64 µM (inactive) | – | 2.28 µM (inactive) | > 100 µM (inactive) | 0.692 µM (active) | 4.56 µM (inactive) | – | > 100 µM (inactive) | 18.6 µM (inactive) | 0.675 µM (active) | > 51.3 µM (inactive) | 10.3 µM (inactive) | 3.88 µM (inactive) | > 83.2 µM (inactive) | 1.92 µM | > 100 µM (inactive) | 5.14 µM (inactive) | > 100 µM (inactive) | > 100 µM (inactive) |
| S=C=Nc1ccc(CSc2nc3ccccc3[nH]2)cc1 | 23.3 µM (inactive) | 18.8 µM (inactive) | 12.9 µM (inactive) | 19.3 µM (inactive) | 17.7 µM (inactive) | 36.5 µM (inactive) | 16.1 µM (inactive) | 17.3 µM (inactive) | 18.7 µM (inactive) | 39.4 µM (inactive) | – | 18.2 µM (inactive) | 18.9 µM (inactive) | 17.5 µM (inactive) | 21.6 µM (inactive) | 15 µM | 16.8 µM (inactive) | 17.1 µM (inactive) | 19.5 µM (inactive) | 16.4 µM (inactive) |
| CCC(=O)n1c(=O)n(-c2ccc([N+](=O)[O-])cc2)c(=O)n1C(=O)CC | > 100 µM (inactive) | – | > 100 µM (inactive) | > 100 µM (inactive) | > 100 µM (inactive) | > 100 µM (inactive) | > 100 µM (inactive) | > 100 µM (inactive) | > 100 µM (inactive) | > 100 µM (inactive) | > 100 µM (inactive) | > 100 µM (inactive) | > 100 µM (inactive) | > 100 µM (inactive) | > 100 µM (inactive) | > 100 µM | – | > 100 µM (inactive) | > 100 µM (inactive) | > 100 µM (inactive) |
| CCOC(=O)/C=C(/N=P(c1ccccc1)(c1ccccc1)c1ccccc1)C(F)(F)F | > 10 µM (inactive) | > 10 µM (inactive) | > 10 µM (inactive) | > 10 µM (inactive) | – | > 10 µM (inactive) | > 10 µM (inactive) | – | > 10 µM (inactive) | > 10 µM (inactive) | > 10 µM (inactive) | > 10 µM (inactive) | > 10 µM (inactive) | > 10 µM (inactive) | > 100 µM (inactive) | > 10 µM | 1.44 µM (inactive) | > 10 µM (inactive) | > 100 µM (inactive) | > 10 µM (inactive) |
| CC(=O)O[C@H]1CCC2[C@@H]3CCC4Nc5oncc5C[C@]4(C)C3CC[C@@]21C (stereo partly specified) | > 10 µM (inactive) | 3.94 µM (inactive) | – | > 10 µM (inactive) | > 10 µM (inactive) | 1.98 µM (inactive) | > 10 µM (inactive) | > 10 µM (inactive) | > 10 µM (inactive) | > 10 µM (inactive) | > 10 µM (inactive) | > 10 µM (inactive) | > 10 µM (inactive) | > 10 µM (inactive) | > 10 µM (inactive) | > 10 µM | > 10 µM (inactive) | > 10 µM (inactive) | > 10 µM (inactive) | > 10 µM (inactive) |
| CCSc1[nH]c(Nc2nc(-c3ccccc3)n(-c3ccccc3)n2)c(C(N)=O)c1C(N)=O | > 10 µM (inactive) | – | 9.44 µM (inactive) | > 10 µM (inactive) | > 10 µM (inactive) | > 10 µM (inactive) | > 10 µM (inactive) | > 10 µM (inactive) | > 10 µM (inactive) | > 10 µM (inactive) | > 10 µM (inactive) | – | – | > 10 µM (inactive) | > 10 µM (inactive) | > 10 µM | > 10 µM (inactive) | > 10 µM (inactive) | – | 6.5 µM (inactive) |
| CN1C(=O)C2(c3ccccc31)C1CC3C(CO1)C1C2C3(CO)CN1C#N (stereo unspecified) | > 100 µM (inactive) | – | > 100 µM (inactive) | > 100 µM (inactive) | > 100 µM (inactive) | > 100 µM (inactive) | > 100 µM (inactive) | – | > 100 µM (inactive) | > 100 µM (inactive) | > 100 µM (inactive) | > 100 µM (inactive) | > 100 µM (inactive) | > 100 µM (inactive) | > 100 µM (inactive) | > 100 µM | > 100 µM (inactive) | > 100 µM (inactive) | > 100 µM (inactive) | > 100 µM (inactive) |
| O=C(CSCC(=O)N/N=C\c1ccc(O)c(O)c1O)N/N=C\c1ccc(O)c(O)c1O | 16.6 µM (inactive) | 7.67 µM (inactive) | 2.11 µM (inactive) | 5.25 µM (inactive) | 16.7 µM (inactive) | 15.8 µM (inactive) | 14.1 µM (inactive) | 3.39 µM (inactive) | 20.8 µM (inactive) | – | 6.31 µM (inactive) | – | 28.3 µM (inactive) | 18.3 µM (inactive) | 31.6 µM (inactive) | 13.4 µM | 31 µM (inactive) | 23.9 µM (inactive) | 13.7 µM (inactive) | 34.9 µM (inactive) |
